Experimental data published in patent US5141959A, “Isoprenoid phospholipase A2 inhibitors and preparations comprising same” (Bristol-Myers Squibb Company, priority 1990, dated 1992).
pIC50: −log10 of the molar value.

How the values were obtained:
human platelet PLA2 = biological target: T1, human platelet PLA2 (Homo sapiens, UniProt P14555); assay: PLA2 Inhibition Assay (14C-oleate labeled E. coli membrane substrate); format: biochemical; details: preincubation 7 min, incubation 30 min, 37° C., pH 7; unit inferred; read-out: IC50 for inhibition of human platelet phospholipase A2
T1 construct: The enzyme was isolated from human platelets; from tissue; host or cells: human platelets
T1 sequence (P14555 21-144): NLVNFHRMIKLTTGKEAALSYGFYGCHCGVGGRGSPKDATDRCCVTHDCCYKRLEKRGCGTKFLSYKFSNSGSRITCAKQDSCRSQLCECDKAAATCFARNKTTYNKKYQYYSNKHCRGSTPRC
Protocol: This assay is used to measure the inhibition of human platelet PLA2 by test compounds. The method used was similar to that reported by Franson et al. [Jesse RL and Franson RC, Biochem Biophys Acta, 575, 467-470 (1979)]. [Franson RC, Patriarca P and Elsback P, J Lipid Res 15, 380-388 (1974)]. The enzyme was isolated from human platelets. The substrate used consisted of ^14 C-oleate labeled E. coli membranes. E. Coli cells were grown in the presence of ^14 C-oleic acid and then autoclaved to prepare membranes. In the assay, various concentrations of test compounds are preincubated with PLA2 (7.5 μg/ml) in a buffer consisting of 25 mM HEPES (pH 7) 150 mM NaCl, 5.0 mM Cacl2, and 10% DMSO (test compound solvent) at 37° C. for 7 minutes. The E. coli membrane substrate is then added (0.1 mM phospholipid, 0.5 μCi/umol) and the reaction is incubated at 37° C. for 30 minutes. The final reaction volume is 0.1 ml. The reaction is quenched with tetrahydrofuran (1.9 ml), and the entire solution is applied to a solid-phase extraction column (aminopropylresin, Analytichem). […] The amount of free fatty acid product is determined by liquid scintillation counting. The amount of inhibition produced by the test compound is calculated by comparing the number of counts obtained in the presence of the compound to that obtained for the control reactions (test compound solvent only). […]

[1] = test system: TPA-induced mouse ear edema; assay: Phorbol ester (TPA)-induced mouse ear inflammation assay: edema (ear weight); format: in vivo, CD-1 mice; details: topical, six hours
Protocol: (§1) Anti-inflammatory activity of the test compounds was determined in the phorbol ester-induced mouse ear inflammation model. [Young J M, Wagner B M and Spires D A, J Invest Dermatol, 80, 48-52 (1983)]. In this assay, an inflammatory reaction is induced by the topical application of 0.01% (w/v) tetradecanoylphorbol-13-acetate (TPA) to the ears of CD-1 mice. An acute inflammatory reaction results in which the ears swell and inflammatory cells infiltrate the ear tissue. TPA, with and without various concentrations of test compound, was applied to the inner and outer aspects of the ears (10 μl/surface). After six hours, the mice were sacrificed and the ears were removed. Ear tissue punches (5/16") were taken from each ear and weighed to measure edema. The ear punches were then processed for the determination of neutrophil accumulation by measurement of myeloperoxidase (MPO) activity by the method of Bradley et al. [Bradley P P et al, J Invest Dermatol, 78, 206-209 (1982)]. MPO is a specific marker for the presence of neutrophils in tissue.
(§2) The anti-inflammatory activity produced by the test compound is calculated by comparing the edema or MPO values obtained for the drug-treated ears to those obtained for non-drug treated ears. Percent inhibition values were determined by the equation: [formula] […] The ED50 is estimated to be 0.8%.

[2] = test system: myeloperoxidase (MPO) activity; assay: Phorbol ester (TPA)-induced mouse ear inflammation assay: cell infiltration (neutrophil accumulation by myeloperoxidase activity); format: in vivo, CD-1 mice; details: topical, six hours
Protocol: as §1, §2

CC1=C(/C=C/C(C)=C/C=C/C(C)=C/C(=O)O)C(C)(C)CCC1 [reference compound]
pIC50 (human platelet PLA2): < 3.30

CC1=C(/C=C/C(C)=C/C=C(/C(C)=C\C(=O)O)c2cccc(C(=O)O)c2)C(C)(C)CCC1 [Compound I, 13-CIS-12-(3'-CARBOXYPHENYL)RETINOIC ACID]
pIC50 (human platelet PLA2): 4.40
Blocking of TPA-induced mouse ear edema (in words) [1]: dose-dependently blocks TPA-induced mouse ear edema
ED50, TPA-induced mouse ear edema ([1]; with TPA 0.01% (w/v)): ~0.8%
Blocking of edema and cell infiltration (in words) ([2]; statement covers edema and cell infiltration): effectively blocks edema and cell infiltration
ED50, inhibition of cell infiltration ([2]; with TPA 0.01% (w/v), MPO activity): < 0.1%
